Ten compounds from patent US11542273B2, “Amide compound having bet proteolysis-inducing action and medicinal application thereof” (MITSUBISHI TANABE PHARMA CORPORATION, priority 2018, dated 2023) can be followed below.

Test [1] has as its target BRD4 protein (Homo sapiens (Human), UniProt O60885). Description: BRD4 protein degradation inducing action in cancer cells (immunofluorescence, Operetta). Type of test: cell-based. As to conditions: LNCaP cells, 6 hr treatment, fluorescence intensity. The method, boiled down: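 LNCaP prostate cancer cells in 10% FBS/RPMI1640 were exposed to compound for 6 hr at 37° C, then fixed, permeabilized and immunostained for BRD4 with Alexa Fluor 488 or 546 secondary antibodies plus Hoechst nuclear stain. Fluorescence was read by high-content imaging; DC50 is the concentration giving 50% of untreated signal, interpolated linearly between bracketing points.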

For test [2], the system named is human prostate cancer LNCaP cells. The test can be described thus: Cytotoxic action on cancer cells (WST-8, 96 hr). Type of test: cell-based. As to conditions: Homo sapiens, LNCaP, 96 h, read-out: LNCaP cytotoxic activity: IC50. The method, boiled down:
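Seed cells in 10% FBS/RPMI1640 and culture overnight (37° C, 5% CO2). Add test compound (DMSO stock diluted in medium). Culture further, then read viable cell number by WST-8. Derive IC50 from the straight line between survival points enclosing 50%.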
In general terms: Tetrazolium assays rely on reduction of a dye to a coloured formazan, in cell work by metabolically active cells.

Each structure is given as a SMILES string.

As usually defined, the DC50 is the midpoint of the concentration-degradation curve. High values mean a less potent degrader, low ones a more potent degrader. By IC50 is commonly meant the concentration at which inhibition is half-maximal. With `CC(=O)NC1N=C(c2ccc(-c3ccc(OCC(=O)N[C@H](C(=O)N4C[C@H](O)C[C@H]4C(=O)N[C@@H](C)c4ccc(-c5scnc5C)cc4)C(C)(C)C)cc3)cc2)c2c(sc(C)c2C)-n2c(C)nnc21` (stereo partly drawn) [Example 34, (2S,4R)-1-[(2S)-2-(2-{[4′-(6-acetamido-2,3,9-trimethyl-6H-thieno[3,2-f][1,2,4]triazolo[4,3-a][1,4]diazepin-4-yl) [1,1′-biphenyl]-4-yl]oxy}acetamido)-3,3-dimethylbutanoyl]-4-hydroxy-N-{(1S)-1-[4-(4-methyl-1,3-thiazol-5-yl)phenyl]ethyl}pyrrolidine-2-carboxamide], the DC50 in test [1] came out at 98 pM. Moreover, in test [2], the IC50 stood at 720 pM.

In the case of `Cc1ncsc1-c1ccc([C@H](C)NC(=O)[C@@H]2C[C@@H](O)CN2C(=O)[C@@H](NC(=O)COc2ccc(-c3ccc(C4=NC(O)c5nnc(C)n5-c5sc(C)c(C)c54)cc3)cc2)C(C)(C)C)cc1` (stereo partly drawn) [Example 30, (2S,4R)-4-hydroxy-1-[(2S)-2-(2-{[4′-(6-hydroxy-2,3,9-trimethyl-6H-thieno[3,2-f][1,2,4]triazolo[4,3-a][1,4]diazepin-4-yl)[1,1′-biphenyl]-4-yl]oxy}acetamido)-3,3-dimethylbutanoyl]-N-{(1S)-1-[4-(4-methyl-1,3-thiazol-5-yl)phenyl]ethyl}pyrrolidine-2-carboxamide], the half-maximal degradation concentration (DC50) in test [1] stood at 430 pM. In addition, the concentration for half-maximal inhibition (IC50) in test [2] was 990 pM.

Regarding `COC(=O)C[C@@H]1N=C(c2ccc(-c3ccc(C(=O)N[C@H](C(=O)N4C[C@H](O)C[C@H]4C(=O)N[C@@H](C)c4ccc(-c5scnc5C)cc4)C(C)C)cc3)cc2)c2c(sc(C)c2C)-n2c(C)nnc21` [Example 210, methyl {(6S)-4-[4′-({(2S)-1-[(2S,4R)-4-hydroxy-2-({(1S)-1-[4-(4-methyl-1,3-thiazol-5-yl)phenyl]ethyl}carbamoyl)pyrrolidin-1-yl]-3-methyl-1-oxobutan-2-yl}carbamoyl)[1,1′-biphenyl]-4-yl]-2,3,9-trimethyl-6H-thieno[3,2-f][1,2,4]triazolo[4,3-a][1,4]diazepin-6-yl}acetate], half-maximal degradation in test [1] (DC50) was put at 260 pM. Besides, the IC50 in test [2] came out at 290 pM.

The compound `COC(=O)N(C)C1N=C(c2ccc(-c3ccc(OCC(=O)N[C@H](C(=O)N4C[C@H](O)C[C@H]4C(=O)N[C@@H](C)c4ccc(-c5scnc5C)cc4)C(C)(C)C)cc3)cc2)c2c(sc(C)c2C)-n2c(C)nnc21` (stereo partly drawn) [Example 35, methyl (4-{4′-[2-({(2S)-1-[(2S,4R)-4-hydroxy-2-({(1S)-1-[4-(4-methyl-1,3-thiazol-5-yl)phenyl]ethyl}carbamoyl)pyrrolidin-1-yl]-3,3-dimethyl-1-oxobutan-2-yl}amino)-2-oxoethoxy][1,1′-biphenyl]-4-yl}-2,3,9-trimethyl-6H-thieno[3,2-f][1,2,4]triazolo[4,3-a][1,4]diazepin-6-yl)methylcarbamate] displayed a DC50 in test [1] of 660 pM. Further, the IC50 in test [2] came out at 3900 pM.

`Cc1ncsc1-c1ccc([C@H](C)NC(=O)[C@@H]2C[C@@H](O)CN2C(=O)[C@@H](NC(=O)C#Cc2ccc(C3=N[C@@H](C)c4nnc(C)n4-c4sc(C)c(C)c43)cc2)C(C)(C)C)cc1` [Example 198, (2S,4R)-1-{(2S)-3,3-dimethyl-2-[(3-{4-[(6S)-2,3,6,9-tetramethyl-6H-thieno[3,2-f][1,2,4]triazolo[4,3-a][1,4]diazepin-4-yl]phenyl}prop-2-ynoyl)amino]butanoyl}-4-hydroxy-N-{(1S)-1-[4-(4-methyl-1,3-thiazol-5-yl)phenyl]ethyl}pyrrolidine-2-carboxamide] came in with a 50% degradation concentration (DC50) in test [1] of 58 pM. In addition, in test [2], the 50% inhibitory concentration (IC50) stood at 61 pM.

In test [1], `COC(=O)C[C@@H]1N=C(c2ccc(-c3ccc(OCC(=O)N[C@H](C(=O)N4C[C@H](O)C[C@H]4C(=O)N[C@@H](C)c4ccc(-c5scnc5C)cc4)C(C)(C)C)cc3OC(F)(F)F)cc2)c2c(sc(C)c2C)-n2c(C)nnc21` [Example Compound 75, methyl [(6S)-4-{4′-[2-({(2S)-1-[(2S,4R)-4-hydroxy-2-({(1S)-1-[4-(4-methyl-1,3-thiazol-5-yl)phenyl]ethyl}carbamoyl)pyrrolidin-1-yl]-3,3-dimethyl-1-oxobutan-2-yl}amino)-2-oxoethoxy]-2′-(trifluoromethoxy)[1,1′-biphenyl]-4-yl}-2,3,9-trimethyl-6H-thieno[3,2-f] [1,2,4]triazolo[4,3-a][1,4]diazepin-6-yl]acetate] registered a DC50 of 750 pM. Also, in test [2], the 50% inhibitory concentration (IC50) was found to be 390 pM.

Consider `Cc1ncsc1-c1ccc([C@H](C)NC(=O)[C@@H]2C[C@@H](O)CN2C(=O)[C@@H](NC(=O)CCCCCCc2ccc(C3=N[C@@H](C)c4nnc(C)n4-c4sc(C)c(C)c43)cc2)C(C)(C)C)cc1` [Example 194, (2S,4R)-1-{(2S)-3,3-dimethyl-2-[(7-{4-[(6S)-2,3,6,9-tetramethyl-6H-thieno[3,2-f][1,2,4]triazolo[4,3-a] [1,4]diazepin-4-yl]phenyl}heptanoyl)amino]butanoyl}-4-hydroxy-N-{(1S)-1-[4-(4-methyl-1,3-thiazol-5-yl)phenyl]ethyl}pyrrolidine-2-carboxamide], for which half-maximal degradation in test [1] (DC50) was put at 230 pM. Also, in test [2], the 50% inhibitory concentration (IC50) amounted to 170 pM.

Regarding `COC(=O)C[C@@H]1N=C(c2ccc(-c3ccc(/C=C/C(=O)N[C@H](C(=O)N4C[C@H](O)C[C@H]4C(=O)N[C@@H](C)c4ccc(-c5scnc5C)cc4)C(C)(C)C)cc3)cc2)c2c(sc(C)c2C)-n2c(C)nnc21` [Example 27, methyl [(6S)-4-{4′-[(1E)-3-({(2S)-1-[(2S,4R)-4-hydroxy-2-({(1S)-1-[4-(4-methyl-1,3-thiazol-5-yl)phenyl]ethyl}carbamoyl)pyrrolidin-1-yl]-3,3-dimethyl-1-oxobutan-2-yl}amino)-3-oxopropen-1-yl][1,1′-biphenyl]-4-yl}-2,3,9-trimethyl-6H-thieno[3,2-f][1,2,4]triazolo[4,3-a] [1,4]diazepin-6-yl]acetate], in test [1], the DC50 came to 85 pM. Besides, the IC50 in test [2] is 64 pM.

As for `COC(=O)C[C@@H]1N=C(c2ccc(-c3ccccc3OCC(=O)N[C@H](C(=O)N3C[C@H](O)C[C@H]3C(=O)N[C@@H](C)c3ccc(-c4scnc4C)cc3)C(C)(C)C)cc2)c2c(sc(C)c2C)-n2c(C)nnc21` [Example 178, methyl [(6S)-4-{2′-[2-({(2S)-1-[(2S,4R)-4-hydroxy-2-({(1S)-1-[4-(4-methyl-1,3-thiazol-5-yl)phenyl]ethyl}carbamoyl)pyrrolidin-1-yl]-3,3-dimethyl-1-oxobutan-2-yl}amino)-2-oxoethoxy][1,1′-biphenyl]-4-yl}-2,3,9-trimethyl-6H-thieno[3,2-f][1,2,4]triazolo[4,3-a][1,4]diazepin-6-yl]acetate], in test [1], half-maximal degradation (DC50) was put at 800 pM. Also, in test [2], the IC50 is 680 pM.

The compound `COC(=O)C[C@@H]1N=C(c2ccc(-c3ccc(OCC(=O)N[C@H](C(=O)N4C[C@H](O)C[C@H]4C(=O)N[C@@H](C)c4ccc(-c5scnc5C)cc4)C(C)(C)C)c(CO)c3)cc2)c2c(sc(C)c2C)-n2c(C)nnc21` [Example 154, methyl [(6S)-4-{3′-(hydroxymethyl)-4′-[2-({(2S)-1-[(2S,4R)-4-hydroxy-2-({(1S)-1-[4-(4-methyl-1,3-thiazol-5-yl)phenyl]ethyl}carbamoyl)pyrrolidin-1-yl]-3,3-dimethyl-1-oxobutan-2-yl}amino)-2-oxoethoxy][1,1′-biphenyl]-4-yl}-2,3,9-trimethyl-6H-thieno[3,2-f][1,2,4]triazolo[4,3-a][1,4]diazepin-6-yl]acetate] gave a DC50 in test [1] of 420 pM. The half-maximal inhibitory concentration (IC50) in test [2] was 450 pM.
